In ChEMBL document CHEMBL4610060, “Orally bioavailable amine-linked macrocyclic inhibitors of factor XIa” (Bioorg Med Chem Lett, 2020):

Columns and labels:
[1] = Permeability across basolateral to apical side in human Caco2 cells; type: ADME, cell-based; details: Caco-2, read-out: permeability
[2] = Metabolic stability in rat liver microsomes assessed as half life; type: ADME, Microsome
[3] = target: Coagulation factor XI (Homo sapiens, UniProt P03951); assay: Inhibition of recombinant human activated coagulation factor XI using pyro-Glu-Pro-Arg-pNA as substrate by spectrophotometry
Coagulation factor XI, sequence (P03951 19-387 limits assumed): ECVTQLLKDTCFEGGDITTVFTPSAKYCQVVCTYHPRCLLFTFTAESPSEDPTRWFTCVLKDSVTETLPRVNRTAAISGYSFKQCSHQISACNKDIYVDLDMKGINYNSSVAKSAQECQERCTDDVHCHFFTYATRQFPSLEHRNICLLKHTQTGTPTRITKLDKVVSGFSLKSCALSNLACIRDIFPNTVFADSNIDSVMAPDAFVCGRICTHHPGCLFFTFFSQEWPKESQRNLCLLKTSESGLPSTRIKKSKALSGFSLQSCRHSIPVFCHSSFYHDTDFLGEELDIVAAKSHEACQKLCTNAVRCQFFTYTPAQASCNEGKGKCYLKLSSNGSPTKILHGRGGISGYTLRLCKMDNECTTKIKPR
Coagulation factor XI, sequence (P03951 388-625 limits assumed): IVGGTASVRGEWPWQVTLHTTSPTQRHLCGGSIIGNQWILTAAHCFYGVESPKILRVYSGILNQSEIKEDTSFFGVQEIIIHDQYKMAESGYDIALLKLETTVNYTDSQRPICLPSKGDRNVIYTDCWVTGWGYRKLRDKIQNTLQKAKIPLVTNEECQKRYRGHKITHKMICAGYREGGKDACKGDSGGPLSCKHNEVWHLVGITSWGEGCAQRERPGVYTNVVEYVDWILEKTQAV

[4] = Protein binding in rat assessed as unbound fraction; type: ADME
[5] = Half life in Sprague-Dawley rat at 0.50 mg/kg, iv or 1.0 mg/kg, po measured upto 24 hrs by LC-MS/MS analysis; type: ADME, organism-based; details: in vivo
[6] = Oral bioavailability in Sprague-Dawley rat at 1.0 mg/kg measured upto 24 hrs by LC-MS/MS analysis; type: ADME, organism-based; details: in vivo
[7] = AUC in Sprague-Dawley rat at 1.0 mg/kg, po measured upto 24 hrs by LC-MS/MS analysis; type: ADME, organism-based; set-up: dose 1 mg/kg, time < 24 hr, route oral; details: in vivo
[8] = tested on: Plasma; assay: Anticoagulant activity in human plasma assessed as EC1.5 of activated partial thromboplastin time by coagulometric analysis; type: functional
[9] = Permeability across apical to basolateral side in human Caco2 cells; type: ADME, cell-based; details: Caco-2, read-out: permeability
[10] = Volume of distribution at steady state in Sprague-Dawley rat at 0.50 mg/kg, iv or 1.0 mg/kg, po measured upto 24 hrs by LC-MS/MS analysis; type: ADME, organism-based; details: in vivo, 0.5 mg/kg, read-out: Vdss
[11] = Clearance in Sprague-Dawley rat at 0.50 mg/kg, iv or 1.0 mg/kg, po measured upto 24 hrs by LC-MS/MS analysis; type: ADME, organism-based; details: in vivo, 0.5 mg/kg
[12] = Metabolic stability in human liver microsomes assessed as half life; type: ADME, Microsome
[13] = Clearance in Sprague-Dawley rat at 0.53 mg/kg, iv or 1.06 mg/kg, po measured upto 24 hrs by LC-MS/MS analysis; type: ADME, organism-based; details: in vivo
[14] = AUC in Sprague-Dawley rat at 1.06 mg/kg, po measured upto 24 hrs by LC-MS/MS analysis; type: ADME, organism-based; set-up: time < 24 hr, dose 1.06 mg/kg, route oral; details: in vivo
[15] = Volume of distribution at steady state in Sprague-Dawley rat at 0.53 mg/kg, iv or 1.06 mg/kg, po measured upto 24 hrs by LC-MS/MS analysis; type: ADME, organism-based; details: in vivo, read-out: Vdss
[16] = Half life in Sprague-Dawley rat at 0.53 mg/kg, iv or 1.06 mg/kg, po measured upto 24 hrs by LC-MS/MS analysis; type: ADME, organism-based; details: in vivo
[17] = Oral bioavailability in Sprague-Dawley rat at 1.06 mg/kg measured upto 24 hrs by LC-MS/MS analysis; type: ADME, organism-based; details: in vivo
[18] = Oral bioavailability in Sprague-Dawley rat at 0.61 mg/kg measured upto 24 hrs by LC-MS/MS analysis; type: ADME, organism-based; details: in vivo
[19] = Half life in Sprague-Dawley rat at 0.31 mg/kg, iv or 0.61 mg/kg, po measured upto 24 hrs by LC-MS/MS analysis; type: ADME, organism-based; details: in vivo
[20] = Volume of distribution at steady state in Sprague-Dawley rat at 0.31 mg/kg, iv or 0.61 mg/kg, po measured upto 24 hrs by LC-MS/MS analysis; type: ADME, organism-based; details: in vivo, read-out: Vdss
[21] = AUC in Sprague-Dawley rat at 0.61 mg/kg, po measured upto 24 hrs by LC-MS/MS analysis; type: ADME, organism-based; set-up: time < 24 hr, dose 0.61 mg/kg, route oral; details: in vivo
[22] = Clearance in Sprague-Dawley rat at 0.31 mg/kg, iv or 0.61 mg/kg, po measured upto 24 hrs by LC-MS/MS analysis; type: ADME, organism-based; details: in vivo
[23] = Clearance in Sprague-Dawley rat at 0.49 mg/kg, iv or 0.98 mg/kg, po measured upto 24 hrs by LC-MS/MS analysis; type: ADME, organism-based; details: in vivo
[24] = Volume of distribution at steady state in Sprague-Dawley rat at 0.49 mg/kg, iv or 0.98 mg/kg, po measured upto 24 hrs by LC-MS/MS analysis; type: ADME, organism-based; details: in vivo, read-out: Vdss
[25] = Half life in Sprague-Dawley rat at 0.49 mg/kg, iv or 0.98 mg/kg, po measured upto 24 hrs by LC-MS/MS analysis; type: ADME, organism-based; details: in vivo
[26] = Oral bioavailability in Sprague-Dawley rat at 0.98 mg/kg measured upto 24 hrs by LC-MS/MS analysis; type: ADME, organism-based; details: in vivo
[27] = AUC in Sprague-Dawley rat at 0.98 mg/kg, po measured upto 24 hrs by LC-MS/MS analysis; type: ADME, organism-based; set-up: time < 24 hr, dose 0.98 mg/kg, route oral; details: in vivo
[28] = Volume of distribution at steady state in Sprague-Dawley rat at 0.72 mg/kg, iv or 1.44 mg/kg, po measured upto 24 hrs by LC-MS/MS analysis; type: ADME, organism-based; details: in vivo, read-out: Vdss
[29] = AUC in Sprague-Dawley rat at 1.44 mg/kg, po measured upto 24 hrs by LC-MS/MS analysis; type: ADME, organism-based; set-up: time < 24 hr, dose 1.44 mg/kg, route oral; details: in vivo
[30] = Clearance in Sprague-Dawley rat at 0.72 mg/kg, iv or 1.44 mg/kg, po measured upto 24 hrs by LC-MS/MS analysis; type: ADME, organism-based; details: in vivo
[31] = Oral bioavailability in Sprague-Dawley rat at 1.44 mg/kg measured upto 24 hrs by LC-MS/MS analysis; type: ADME, organism-based; details: in vivo
[32] = Half life in Sprague-Dawley rat at 0.72 mg/kg, iv or 1.44 mg/kg, po measured upto 24 hrs by LC-MS/MS analysis; type: ADME, organism-based; details: in vivo
[33] = Half life in Sprague-Dawley rat at 0.52 mg/kg, iv or 1.04 mg/kg, po measured upto 24 hrs by LC-MS/MS analysis; type: ADME, organism-based; details: in vivo
[34] = Volume of distribution at steady state in Sprague-Dawley rat at 0.52 mg/kg, iv or 1.04 mg/kg, po measured upto 24 hrs by LC-MS/MS analysis; type: ADME, organism-based; details: in vivo, read-out: Vdss
[35] = Clearance in Sprague-Dawley rat at 0.52 mg/kg, iv or 1.04 mg/kg, po measured upto 24 hrs by LC-MS/MS analysis; type: ADME, organism-based; details: in vivo
[36] = Oral bioavailability in Sprague-Dawley rat at 1.04 mg/kg measured upto 24 hrs by LC-MS/MS analysis; type: ADME, organism-based; details: in vivo
[37] = AUC in Sprague-Dawley rat at 1.04 mg/kg, po measured upto 24 hrs by LC-MS/MS analysis; type: ADME, organism-based; set-up: time < 24 hr, dose 1.04 mg/kg, route oral; details: in vivo
[38] = Half life in Sprague-Dawley rat at 1.13 mg/kg, iv or 2.27 mg/kg, po measured upto 24 hrs by LC-MS/MS analysis; type: ADME, organism-based; details: in vivo
[39] = Clearance in Sprague-Dawley rat at 1.13 mg/kg, iv or 2.27 mg/kg, po measured upto 24 hrs by LC-MS/MS analysis; type: ADME, organism-based; details: in vivo
[40] = AUC in Sprague-Dawley rat at 2.27 mg/kg, po measured upto 24 hrs by LC-MS/MS analysis; type: ADME, organism-based; set-up: time < 24 hr, dose 2.27 mg/kg, route oral; details: in vivo
[41] = Volume of distribution at steady state in Sprague-Dawley rat at 1.13 mg/kg, iv or 2.27 mg/kg, po measured upto 24 hrs by LC-MS/MS analysis; type: ADME, organism-based; details: in vivo, read-out: Vdss
[42] = Oral bioavailability in Sprague-Dawley rat at 2.27 mg/kg measured upto 24 hrs by LC-MS/MS analysis; type: ADME, organism-based; details: in vivo

| Compound | Papp B→A [1] [×10⁻⁶ cm/s] | half-life [2] [h] | Ki [3] [nM] | fraction unbound [4] | Papp A→B [9] [×10⁻⁶ cm/s] | half-life [12] [h] | EC1.5 [8] [µM] | other results |
| --- | --- | --- | --- | --- | --- | --- | --- | --- |
| CCOC(=O)[C@H]1CCCC[C@H](NC(=O)/C=C/c2cc(Cl)ccc2-n2cnnn2)c2cc(ccn2)-c2ccc(NC(=O)OC)cc2N1 | 10.1 | 0.983 | 2.5 | 0.008 | < 1.5 | 0.5 | 6.1 | half-life [5]: 3.6 h; bioavailability [6]: 41%; AUC at 24 h [7]: 1.29 µM·h; Vd [10]: 1.3 L/kg; clearance [11]: 4.9 mL/min/kg |
| O=C(/C=C/c1cc(Cl)ccc1-n1cnnn1)N[C@H]1CCCCC(=O)Nc2ccccc2-c2c[nH]c1n2 | 20.5 |  | 48 |  | < 1.5 | 0.1 | >40 | bioavailability [18]: < 1%; half-life [19]: 0.5 h; Vd [20]: 1.2 L/kg; AUC at 24 h [21]: 0.001 µM·h; clearance [22]: 53 mL/min/kg |
| COC(=O)Nc1ccc2c(c1)N[C@@H](C(F)(F)F)CCCC[C@H](NC(=O)/C=C/c1cc(Cl)ccc1-n1cnnn1)c1nc-2c[nH]1 |  | 0.233 | 1.1 | 0.002 |  | 0.9 | 2.6 | Vd [28]: 0.4 L/kg; AUC at 24 h [29]: 0.307 µM·h; clearance [30]: 12 mL/min/kg; bioavailability [31]: 9%; half-life [32]: 1.4 h |
| CCOC(=O)[C@H]1CCCC[C@H](NC(=O)/C=C/c2cc(Cl)ccc2-n2cnnn2)c2nc(c[nH]2)-c2ccc(NC(=O)OC)cc2N1 | 13.3 | 0.567 | 0.22 | < 0.002 | < 1.5 | 0.117 | 0.86 | half-life [5]: 1.5 h; bioavailability [6]: 7%; AUC at 24 h [7]: 0.478 µM·h; Vd [10]: 0.2 L/kg; clearance [11]: 2.8 mL/min/kg |

Further lines, with some results ahead:

| Papp B→A [1] [×10⁻⁶ cm/s] | half-life [2] [h] | Ki [3] [nM] | fraction unbound [4] | Papp A→B [9] [×10⁻⁶ cm/s] | half-life [12] [h] | Compound | EC1.5 [8] [µM] | other results |
| --- | --- | --- | --- | --- | --- | --- | --- | --- |
| 10.3 | 0.8 | 0.46 | < 0.002 | < 1.5 | 0.167 | COC(=O)Nc1ccc2c(c1)N[C@@H](C(=O)OC)CCCC[C@H](NC(=O)/C=C/c1cc(Cl)ccc1-n1cnnn1)c1nc-2c[nH]1 | 0.55 | clearance [13]: 3 mL/min/kg; AUC at 24 h [14]: 0.487 µM·h; Vd [15]: 0.3 L/kg; half-life [16]: 1.8 h; bioavailability [17]: 8% |
| < 1.5 | 1.25 | 0.67 | 0.014 | < 1.5 | 1.17 | COC(=O)Nc1ccc2c(c1)N[C@@H](C(=O)O)CCCC[C@H](NC(=O)/C=C/c1cc(Cl)ccc1-n1cnnn1)c1nc-2c[nH]1 | 0.87 | clearance [23]: 7.7 mL/min/kg; Vd [24]: 0.33 L/kg; half-life [25]: 1 h; bioavailability [26]: 1%; AUC at 24 h [27]: 0.014 µM·h |
| 21.3 | 1.45 | 3.4 |  | < 1.5 | 1.85 | COC(=O)Nc1ccc2c(c1)N[C@@H](C(=O)OC)CCCC[C@H](NC(=O)/C=C/c1cc(Cl)ccc1-n1cnnn1)c1cc-2ccn1 | 3.4 | half-life [33]: 1.2 h; Vd [34]: 0.53 L/kg; clearance [35]: 5.2 mL/min/kg; bioavailability [36]: 23%; AUC at 24 h [37]: 0.889 µM·h |
| 6.7 | 1.27 |  |  | < 1.5 | 1.5 | COC(=O)Nc1ccc2c(c1)NC(=O)CCCC[C@H](NC(=O)/C=C/c1cc(Cl)ccc1-n1cnnn1)c1nc-2c[nH]1 | 0.3 | half-life [38]: 1 h; clearance [39]: 10 mL/min/kg; AUC at 24 h [40]: 0.024 µM·h; Vd [41]: 0.3 L/kg; bioavailability [42]: < 1% |
